Laboratory results published in paper PMC12040169 (PLOS Biology, 2025).

Test: in vitro
Conditions: human, hela cells, % viability

Row | Structure (SMILES) | viability at 28.5 h, 10 µM [%]
1 | Cc1nc(C)c(-c2csc(Nc3ccc(C(=O)O)c(O)c3)n2)s1 [CBK267263] | 101
2 | O=C(O)CCNS(=O)(=O)c1cccc(F)c1 [CBK267264] | 115
3 | COc1ccc(NC(S)=NCCN2CCC(C)CC2)cc1Cl [CBK267268] | 84
4 | N#C/C(=C\c1ccc2noc(-c3ccccc3)c2c1)c1nc(-c2cc3ccccc3oc2=O)cs1 [CBK267269] | 90.2
5 | O=[N+]([O-])c1ccccc1S(=O)(=O)N1CCN(c2ccnc3cc(Cl)ccc23)CC1 [CBK267271] | 92.1
6 | CC1CCc2c(sc3nc(SCC(=O)NC(c4ccccc4)c4ccccc4)nc(N)c23)C1 (stereo not drawn) [CBK267274] | 91.1
7 | Cc1cc(C)c(C)c(S(=O)(=O)Nc2ccc(C(=O)NCc3ccccn3)cc2)c1C [CBK267275] | 85.8
8 | O=C(Nc1ccccc1N1CCN(C(=O)c2ccc(Cl)cc2)CC1)c1ccc(-c2cc3ccccc3oc2=O)cc1 [CBK267280] | 92.3
9 | CN(C)c1nc(NCc2ccccc2)nc(SCC(=O)Nc2ccc(Cl)c(Cl)c2)n1 [CBK267289] | 97
10 | CC(=O)Nc1ccc(-c2csc(Nc3ccc(S(=O)(=O)Nc4nc(C)cc(C)n4)cc3)n2)cc1 [CBK267295] | 87
11 | C=CCOc1ccc2ccccc2c1CNc1nc[nH]n1 [CBK267296] | 87.9
12 | O=C(NCc1ccccn1)c1ccc(CNS(=O)(=O)c2cccc(Cl)c2)cc1 [CBK267297] | 100
13 | Cc1cc(NS(=O)(=O)c2ccc(Nc3nc(-c4ccc(Cl)cc4Cl)cs3)cc2)no1 [CBK267298] | 104
14 | CC(=O)C1=C(c2ccccc2)NC(=S)NC1c1cc(Cl)ccc1OCC(=O)O (stereo not drawn) [CBK267300] | 99.4
15 | Cc1ccc(C)c(S(=O)(=O)NCC(=O)Nc2nsc(-c3ccccc3)n2)c1 [CBK267304] | 97.4
16 | O=C(Nc1ccc(S(=O)(=O)Nc2nccc(C3Cc4ccccc4C(=O)O3)n2)cc1)c1ccccc1 (stereo not drawn) [CBK267306] | 105
17 | O=C(CSc1nnc(-c2ccco2)n1-c1ccccc1)NCc1ccc2c(c1)OCO2 [CBK267308] | 85.3
18 | Clc1cccc(-c2nc(NCCCN3CCOCC3)c3ccccc3n2)c1 [CBK267309] | 76
19 | O=[N+]([O-])c1cccc(-c2ccc(-c3nn4c(Cc5ccccc5)nnc4s3)o2)c1 [CBK267310] | 86.4
20 | O=C(CN1CCOCC1)Nc1ccc(Br)cc1[N+](=O)[O-] [CBK267314] | 96.9
21 | O=C(NCCN1CCOCC1)c1cccc(S(=O)(=O)N2CCCC2)c1 [CBK267316] | 98.2

Row | Structure (SMILES) | viability at 28.5 h, 10 µM [%]
22 | CCOc1ccc(-c2cn(C(=O)Nc3ccccc3)nc2N)cc1 [CBK267317] | 90.3
23 | COc1ccc(Cl)cc1NC(=O)CC1NC2CCCCC2NC1=O (stereo not drawn) [CBK267318] | 80.4
24 | Nc1ncnc(NCCc2ccc(S(N)(=O)=O)cc2)c1[N+](=O)[O-] [CBK267320] | 86.4
25 | CC(=O)Nc1ccc(NC(=O)COc2c(C)cc(Br)cc2C)cc1 [CBK267321] | 101
26 | C=CCSc1nc(-c2ccc(OCCC)cc2)n[nH]1 [CBK267323] | 100
27 | CC(C)(C)NS(=O)(=O)c1ccc(NC(=O)NC2CCCCC2)cc1 [CBK267324] | 96.7
28 | COc1ccc([N+](=O)[O-])cc1NC(=O)c1ccc(-c2cc3ccccc3oc2=O)cc1 [CBK267325] | 79.1
29 | Cc1ccc(C(=O)O)cc1S(=O)(=O)N1CCC(C(=O)O)CC1 [CBK267327] | 107
30 | O=C(O)CCNS(=O)(=O)c1cccc(Cl)c1 [CBK267328] | 106
31 | Cc1cc(/C=C\c2nc(O)c([N+](=O)[O-])c(=O)[nH]2)c(C)n1-c1ccc(C(=O)O)cc1 [CBK267334] | 96.4
32 | Cc1nc2ccccc2n1CC(=O)NCCN1CCCC1 [CBK267336] | 113
33 | O=C(Nc1ccc(N2CCN(C(=O)c3cccs3)CC2)cc1)c1ccc(-c2cc3ccccc3oc2=O)cc1 [CBK267340] | 96.2
34 | CC1(C)CC(=O)C2=C(C1)Nc1ccccc1N(C(=S)NCc1ccco1)C2c1cccnc1 (stereo not drawn) [CBK267342] | 89.4
35 | c1ccc(-c2nnc3sc(-c4ccccn4)nn23)cc1 [CBK267344] | 96.2
36 | CCCn1cc(C(CC(=O)O)C(=O)O)c2ccccc21 (stereo not drawn) [CBK267345] | 92.4
37 | Cc1nc(C)c(-c2csc(Nc3ccc(O)cc3C)n2)s1 [CBK267346] | 98.7
38 | CCCCC12CN3CC(C)(CN(C1)C31C(=O)Nc3ccc(Br)cc31)C2=O (stereo not drawn) [CBK267348] | 96
39 | Cc1ccc(C)c(NC(=O)C2CN(S(=O)(=O)c3ccccc3)CCN2S(=O)(=O)c2ccccc2)c1 (stereo not drawn) [CBK267349] | 93.5
40 | Nc1ncnc(NCCc2ccc(Cl)cc2)c1[N+](=O)[O-] [CBK267351] | 88.3
41 | Cc1nc(N)sc1-c1nnc(Nc2ccccc2)s1 [CBK267353] | 82.7
42 | O=C(O)c1ccc(-c2ccc(/C=C/c3nc(O)c([N+](=O)[O-])c(=O)[nH]3)o2)cc1Cl [CBK267354] | 88.1
